One test addresses T1, FLK-1 receptor (Mus musculus, UniProt P35918).
T1 construct: expressed in transfected cells; host or cells: NIH3T3 C7#3
Briefly: FLK-1 ELISA (kinase activity of the FLK-1 receptor in FLK-1/NIH3T3 cells, VEGF stimulated). The format is cell-based. Put shortly: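 NIH3T3 C7#3 cells expressing FLK-1 were seeded at 25.000 cells/well, serum-starved overnight in 0.1% FBS, then treated with compound for two hours at 37°C (final DMSO 0.5%) before VEGF stimulation. Receptor was captured on anti-rabbit IgG-coated ELISA plates bearing affinity-purified anti-FLK-1 antiserum.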
Background: ELISA stands for enzyme-linked immunosorbent assay.

The test system of another test is MET. As to the kind of experiment: MET biochemical kinase assay. Also noted: species or system human; concentration or dose not given beside the values. Put shortly:
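Immunocaptured MET autophosphorylation, read colorimetrically (TMB) via HRP anti-phosphotyrosine antibody. Kinase reaction initiated with buffer containing ATP and divalent metals after compound addition to plate-bound receptor from lysates.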

Consider 47 molecules from EP1247803A2, “Indolinone compounds suitable for modulation of protein kinases” (Sugen, Inc., priority 1996, dated 1998).

SMILES strings stand for the structures.

T1 sequence (P35918 20-1345): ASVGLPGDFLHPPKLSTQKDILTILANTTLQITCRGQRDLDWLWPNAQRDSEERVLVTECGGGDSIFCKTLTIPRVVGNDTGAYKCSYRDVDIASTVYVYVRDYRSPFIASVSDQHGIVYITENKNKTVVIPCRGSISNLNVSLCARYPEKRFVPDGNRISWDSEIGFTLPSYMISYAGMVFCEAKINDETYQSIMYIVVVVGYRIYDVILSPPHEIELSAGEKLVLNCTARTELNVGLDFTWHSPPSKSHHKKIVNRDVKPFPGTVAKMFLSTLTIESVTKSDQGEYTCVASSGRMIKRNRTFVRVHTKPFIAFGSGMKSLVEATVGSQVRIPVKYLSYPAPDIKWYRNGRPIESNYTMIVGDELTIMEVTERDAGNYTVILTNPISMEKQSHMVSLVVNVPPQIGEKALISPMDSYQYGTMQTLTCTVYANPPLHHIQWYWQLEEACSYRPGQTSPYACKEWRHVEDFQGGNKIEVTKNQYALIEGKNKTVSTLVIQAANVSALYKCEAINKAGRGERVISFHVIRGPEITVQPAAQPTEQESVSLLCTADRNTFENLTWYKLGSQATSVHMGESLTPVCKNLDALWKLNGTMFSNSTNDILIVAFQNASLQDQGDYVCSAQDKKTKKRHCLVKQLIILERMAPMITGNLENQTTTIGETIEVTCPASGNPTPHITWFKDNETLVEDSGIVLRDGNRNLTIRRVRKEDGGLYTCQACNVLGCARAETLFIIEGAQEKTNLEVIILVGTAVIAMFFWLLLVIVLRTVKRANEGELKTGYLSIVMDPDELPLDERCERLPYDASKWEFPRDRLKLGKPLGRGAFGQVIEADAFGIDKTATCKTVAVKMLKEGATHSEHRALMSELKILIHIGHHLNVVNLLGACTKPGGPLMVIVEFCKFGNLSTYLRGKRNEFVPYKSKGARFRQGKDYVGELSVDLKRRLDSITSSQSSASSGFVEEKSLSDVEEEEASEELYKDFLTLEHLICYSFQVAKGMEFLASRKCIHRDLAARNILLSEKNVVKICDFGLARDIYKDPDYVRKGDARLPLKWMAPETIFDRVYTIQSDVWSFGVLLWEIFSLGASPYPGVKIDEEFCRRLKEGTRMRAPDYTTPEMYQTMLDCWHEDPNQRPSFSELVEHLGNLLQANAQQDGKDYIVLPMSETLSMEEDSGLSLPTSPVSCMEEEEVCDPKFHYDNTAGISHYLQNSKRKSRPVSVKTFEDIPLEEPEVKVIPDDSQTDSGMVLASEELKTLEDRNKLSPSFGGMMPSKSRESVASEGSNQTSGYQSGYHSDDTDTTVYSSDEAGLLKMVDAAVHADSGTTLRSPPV

Consider `Cc1[nH]c(C=C2C(=O)Nc3c(Br)cc(Br)cc32)c(Br)c1Br` [10717/A11], for which, at FLK-1 receptor, the “Fik Kinase %Inhibition” value is listed as -5.8%. Moreover, the “Met Kinase % Inhibition” value with MET came out at 64.8%.
As for `O=C1Nc2ccc(S(=O)(=O)Nc3ccc(C(F)(F)F)cc3)cc2C1=Cc1ccc2ccccc2c1O` [10718/E04], at FLK-1 receptor, the “Fik Kinase %Inhibition” value stood at 15.1%. The “Met Kinase % Inhibition” value in the test on MET was 87.7%.
With `CCOC(=O)CCc1c(C(=O)OCC)[nH]c(C=C2C(=O)Nc3ccc(S(=O)(=O)Nc4ccc(C(F)(F)F)cc4)cc32)c1CC(=O)OCC` [10718/E05], the “Fik Kinase %Inhibition” value at FLK-1 receptor stood at 16.1%. Also, the “Met Kinase % Inhibition” value with MET was 32.2%.
The corresponding values for `CCOC(=O)c1cc(C=C2C(=O)Nc3ccc(S(=O)(=O)Nc4ccc(C(F)(F)F)cc4)cc32)oc1C` [10718/E06] are 15.4% and 33.4%.
Regarding `COC(=O)c1[nH]c(C)c(C=C2C(=O)Nc3ccc(S(=O)(=O)Nc4ccc(C(F)(F)F)cc4)cc32)c1C(=O)OC` [10718/E07], the “Fik Kinase %Inhibition” value on FLK-1 receptor stood at 15.6%. In addition, in the test with MET, the “Met Kinase % Inhibition” value was 80.5%.
Turning to `O=C1Nc2ccc(S(=O)(=O)Nc3ccc(C(F)(F)F)cc3)cc2C1=Cc1ccc(Cl)c([N+](=O)[O-])c1` [10718/E08], at FLK-1 receptor, the “Fik Kinase %Inhibition” value was determined as 9.2%. For the same molecule, the “Met Kinase % Inhibition” value in the test on MET came to 69.6%.
Turning to `Cc1c(O)ccc(C=C2C(=O)Nc3ccc(S(=O)(=O)Nc4ccc(C(F)(F)F)cc4)cc32)c1O` [10718/E09], the “Fik Kinase %Inhibition” value at FLK-1 receptor worked out at 0.9%. Further, the “Met Kinase % Inhibition” value in the test on MET came out at 80.8%.
The corresponding values for `O=C1Nc2ccc(S(=O)(=O)Nc3ccc(C(F)(F)F)cc3)cc2C1=Cc1ccco1` [10718/E10] are 15.2% and 60.8%.
Regarding `O=C1Nc2ccc(S(=O)(=O)Nc3ccc(C(F)(F)F)cc3)cc2C1=Cc1ccc([N+](=O)[O-])o1` [10718/E11], at FLK-1 receptor, the “Fik Kinase %Inhibition” value was 12.1%. Besides, in the test with MET, the “Met Kinase % Inhibition” value worked out at 37.5%.
The corresponding values for `COc1c([N+](=O)[O-])cc(C=C2C(=O)Nc3ccc(S(=O)(=O)Nc4ccc(C(F)(F)F)cc4)cc32)cc1C(C)(C)C` [10733/E03] are 42.6% and 26.8%.
For `COc1c(C(C)(C)C)cc(C=C2C(=O)Nc3ccc(S(=O)(=O)Nc4ccc(C(F)(F)F)cc4)cc32)cc1C(C)(C)C` [10733/E04], the “Fik Kinase %Inhibition” value on FLK-1 receptor was 2.1%. Moreover, in the test on MET, the “Met Kinase % Inhibition” value came out at 17.5%.
Taken in the same sequence, the figures for `CC(C)(C)c1cc(C=C2C(=O)Nc3ccc(S(=O)(=O)Nc4ccc(C(F)(F)F)cc4)cc32)cc(C(C)(C)C)c1OCc1ccccc1` [10733/E05] were 10.6% and 2.9%.
As for `COc1c(C)cc(C=C2C(=O)Nc3ccc(S(=O)(=O)Nc4ccc(C(F)(F)F)cc4)cc32)cc1C` [10733/E06], the “Fik Kinase %Inhibition” value on FLK-1 receptor was found to be 13.5%. Also, the “Met Kinase % Inhibition” value in the test with MET came out at 10.4%.
`Cc1cc(C=C2C(=O)Nc3ccc(S(=O)(=O)Nc4ccc(C(F)(F)F)cc4)cc32)cc(C)c1OCc1ccccc1` [10733/E07]: at FLK-1 receptor, the “Fik Kinase %Inhibition” value is 13.2%. In the test on MET, the “Met Kinase % Inhibition” value is -10.1%.
Take `COc1cc(Br)cc(C=C2C(=O)Nc3ccc(S(=O)(=O)Nc4ccc(C(F)(F)F)cc4)cc32)c1O` [10733/E08]: the “Fik Kinase %Inhibition” value on FLK-1 receptor is on record as -5.1%. Besides, the “Met Kinase % Inhibition” value in the test on MET amounted to 81.1%.
Regarding `O=C1Nc2ccc(S(=O)(=O)Nc3ccc(C(F)(F)F)cc3)cc2C1=Cc1cc(Br)ccc1O` [10733/E09], the “Fik Kinase %Inhibition” value at FLK-1 receptor came to 13.4%. Besides, in the test on MET, the “Met Kinase % Inhibition” value was found to be 62.6%.
On to `O=C1Nc2ccc(S(=O)(=O)Nc3ccc(C(F)(F)F)cc3)cc2C1=Cc1cc([N+](=O)[O-])ccc1O` [10733/E10], for which, at FLK-1 receptor, the “Fik Kinase %Inhibition” value is 5.5%. Also, the “Met Kinase % Inhibition” value with MET was determined as 52.8%.
As for `COc1c(O)ccc(C=C2C(=O)Nc3ccc(S(=O)(=O)Nc4ccc(C(F)(F)F)cc4)cc32)c1[N+](=O)[O-]` [10733/E11], the “Fik Kinase %Inhibition” value at FLK-1 receptor is on record as 5.5%. Also, the “Met Kinase % Inhibition” value in the test on MET was found to be 71.8%.
As for `CC(C)(C)c1cc(C=C2C(=O)Nc3ccc(S(=O)(=O)N4CCOCC4)cc32)cc(I)c1OCc1ccccc1` [10733/F02], on FLK-1 receptor, the “Fik Kinase %Inhibition” value is reported as -15.7%. Also, in the test with MET, the “Met Kinase % Inhibition” value turned out to be 71.6%.
Turning to `COc1c([N+](=O)[O-])cc(C=C2C(=O)Nc3ccc(S(=O)(=O)N4CCOCC4)cc32)cc1C(C)(C)C` [10733/F03], the “Fik Kinase %Inhibition” value on FLK-1 receptor is recorded as 17.5%. In addition, in the test on MET, the “Met Kinase % Inhibition” value was determined as 24.2%.
In the case of `COc1c(C(C)(C)C)cc(C=C2C(=O)Nc3ccc(S(=O)(=O)N4CCOCC4)cc32)cc1C(C)(C)C` [10733/F04], at FLK-1 receptor, the “Fik Kinase %Inhibition” value is recorded as 21.4%. The “Met Kinase % Inhibition” value with MET is listed as 65.1%.
Regarding `CC(C)(C)c1cc(C=C2C(=O)Nc3ccc(S(=O)(=O)N4CCOCC4)cc32)cc(C(C)(C)C)c1OCc1ccccc1` [10733/F05], the “Fik Kinase %Inhibition” value at FLK-1 receptor is recorded as 26.2%. Besides, the “Met Kinase % Inhibition” value with MET was 65.1%.
Taken in the same sequence, the figures for `COc1c(C)cc(C=C2C(=O)Nc3ccc(S(=O)(=O)N4CCOCC4)cc32)cc1C` [10733/F06] were 19.3% and 20.9%.
Taken in the same sequence, the figures for `Cc1cc(C=C2C(=O)Nc3ccc(S(=O)(=O)N4CCOCC4)cc32)cc(C)c1OCc1ccccc1` [10733/F07] were 16.4% and -16.4%.
In the case of `COc1cc(Br)cc(C=C2C(=O)Nc3ccc(S(=O)(=O)N4CCOCC4)cc32)c1O` [10733/F08], the “Fik Kinase %Inhibition” value on FLK-1 receptor is -13.2%. Moreover, in the test on MET, the “Met Kinase % Inhibition” value was found to be 66.6%.
Taken in the same sequence, the figures for `O=C1Nc2ccc(S(=O)(=O)N3CCOCC3)cc2C1=Cc1cc(Br)ccc1O` [10733/F09] were -2.1% and 52.8%.
Taken in the same sequence, the figures for `O=C1Nc2ccc(S(=O)(=O)N3CCOCC3)cc2C1=Cc1cc([N+](=O)[O-])ccc1O` [10733/F10] were 8.5% and 24.4%.
In the case of `COc1c(O)ccc(C=C2C(=O)Nc3ccc(S(=O)(=O)N4CCOCC4)cc32)c1[N+](=O)[O-]` [10733/F11], the “Fik Kinase %Inhibition” value on FLK-1 receptor is listed as 4.1%. Also, the “Met Kinase % Inhibition” value with MET came out at 44.4%.
Taken in the same sequence, the figures for `CC(C)(C)c1cc(C=C2C(=O)Nc3ccc(CCCl)cc32)cc(I)c1OCc1ccccc1` [10733/G02] were 8.3% and 64.5%.
Taken in the same sequence, the figures for `COc1c([N+](=O)[O-])cc(C=C2C(=O)Nc3ccc(CCCl)cc32)cc1C(C)(C)C` [10733/G03] were 24.7% and 30.5%.
With `COc1c(C(C)(C)C)cc(C=C2C(=O)Nc3ccc(CCCl)cc32)cc1C(C)(C)C` [10733/G04], at FLK-1 receptor, the “Fik Kinase %Inhibition” value stood at 11.5%. Also, in the test with MET, the “Met Kinase % Inhibition” value is 20.3%.
As for `CC(C)(C)c1cc(C=C2C(=O)Nc3ccc(CCCl)cc32)cc(C(C)(C)C)c1OCc1ccccc1` [10733/G05], the “Fik Kinase %Inhibition” value at FLK-1 receptor stood at 19.2%. In the test on MET, the “Met Kinase % Inhibition” value is listed as 1.8%.
The corresponding values for `COc1c(C)cc(C=C2C(=O)Nc3ccc(CCCl)cc32)cc1C` [10733/G06] are 37.0% and 0.8%.
Taken in the same sequence, the figures for `Cc1cc(C=C2C(=O)Nc3ccc(CCCl)cc32)cc(C)c1OCc1ccccc1` [10733/G07] were 19.5% and 8.5%.
With `COc1cc(Br)cc(C=C2C(=O)Nc3ccc(CCCl)cc32)c1O` [10733/G08], the “Fik Kinase %Inhibition” value at FLK-1 receptor is given as 2.5%. Moreover, in the test with MET, the “Met Kinase % Inhibition” value amounted to 79.0%.
For `O=C1Nc2ccc(CCCl)cc2C1=Cc1cc(Br)ccc1O` [10733/G09], the “Fik Kinase %Inhibition” value at FLK-1 receptor is reported as 77.8%. The “Met Kinase % Inhibition” value in the test with MET was determined as 41.4%.
For the molecule `O=C1Nc2ccc(CCCl)cc2C1=Cc1cc([N+](=O)[O-])ccc1O` [10733/G10], the “Fik Kinase %Inhibition” value on FLK-1 receptor was determined as 12.7%. Also, the “Met Kinase % Inhibition” value in the test on MET came out at 41.9%.
As to `COc1c(O)ccc(C=C2C(=O)Nc3ccc(CCCl)cc32)c1[N+](=O)[O-]` [10733/G11], the “Fik Kinase %Inhibition” value at FLK-1 receptor is 3.3%. The “Met Kinase % Inhibition” value in the test with MET amounted to 32.6%.
Taken in the same sequence, the figures for `CCOc1cccc(C=C2C(=O)Nc3c(Br)cc(Br)cc32)c1O` [10734/A02] were 4.1% and 51.1%.
Turning to `O=C1Nc2c(Br)cc(Br)cc2C1=Cc1cc(Cl)cc(Cl)c1O` [10734/A03], on FLK-1 receptor, the “Fik Kinase %Inhibition” value is recorded as 10.1%. In addition, the “Met Kinase % Inhibition” value in the test on MET turned out to be 87.8%.
Regarding `O=C1Nc2c(Br)cc(Br)cc2C1=Cc1cc(Cl)ccc1O` [10734/A04], the “Fik Kinase %Inhibition” value on FLK-1 receptor came to 0.6%. For the same molecule, the “Met Kinase % Inhibition” value with MET is 68.0%.
Taken in the same sequence, the figures for `CCN(CC)c1ccc(C=C2C(=O)Nc3c(Br)cc(Br)cc32)c(O)c1` [10734/A05] were 9.1% and 69.9%.
Regarding `O=C1Nc2c(Br)cc(Br)cc2C1=Cc1ccc([N+](=O)[O-])cc1` [10734/A06], the “Fik Kinase %Inhibition” value on FLK-1 receptor was -6.4%. In the test on MET, the “Met Kinase % Inhibition” value stood at 46.9%.
The corresponding values for `O=C1Nc2c(Br)cc(Br)cc2C1=Cc1cc(Br)cc(Br)c1O` [10734/A07] are -9.4% and 89.3%.
As to `O=C1Nc2c(Br)cc(Br)cc2C1=Cc1cccc(F)c1O` [10734/A08], the “Fik Kinase %Inhibition” value at FLK-1 receptor is recorded as 0.1%. The “Met Kinase % Inhibition” value in the test with MET was 71.5%.
As to `O=C1Nc2c(Br)cc(Br)cc2C1=Cc1ccc(O)c(Br)c1` [10734/A09], at FLK-1 receptor, the “Fik Kinase %Inhibition” value was -7.9%. Besides, the “Met Kinase % Inhibition” value in the test with MET came to 88.4%.
For `CC(C)(C)c1ccc(C=C2C(=O)Nc3c(Br)cc(Br)cc32)cc1` [10734/A10], the “Fik Kinase %Inhibition” value at FLK-1 receptor amounted to 4.4%. Also, the “Met Kinase % Inhibition” value in the test with MET is recorded as 55.4%.
